Assays:
[1] = intraperitoneal hepatic recycling glucose tolerance test (HRGTT) with [1, 2-^13C2]-glucose load; assay type: in vivo, C57BL6 mice; settings: for decrease in total amount of M2 glucose: compared to amount appearing in plasma between 0-60 minutes
Description: Stable isotopes of the M2 isotopomer glucose was administered at 1 mg glucose/gm body weight by intraperitoneal injection. Animals were euthanized by an overdose of isoflurane anesthesia, and tissue from liver and skeletal muscle were rapidly dissected free, snap-frozen in liquid nitrogen, and stored at −80° C. until processed for isolation of RNA or glycogen. Cytosolic protein was extracted from the liver tissue after homogenization with 10 strikes in lysis buffer containing 0.25 M sucrose, I OmM Tris-HCL(pH7.4), 3 mM MgCL2, 0.1 mM PMSF, 20 mM NaF, 1 mM Na3VO4, 1 MM Na4P207, 1 μg/ml of leupeptin/aprotinin/pepstatin. The resulting cell lysate was filtered with 4 layers of cheesecloth. Nuclei were pelleted by centrifugation at 1000 g for 10 min. Mitochondria were precipitated by centrifugation at 15,000 g for 20 min from the supernatant. The cytosolic fraction was isolated as the supernatant obtained from last ultra-centrifugation at 100,000 g at 4° C. for 1 hr. Protein concentration from cytosol were measured by using an absorbance at 595 run (BCA kit from Pierce). 60 1 μg of protein extracts from cytosol were separated by 10% SDS-PAGE. The membrane blots were incubated with anti-GK at 1:2500 (v/v), anti-G6PDH at 1:2000 (v/v), anti-PEPCK at 1:500 (v/v), and anti-p-actin at 1:2000 (v/v), for either 1 hr in western washing buffer at RT or overnight at 4 C after blocking. The blots were hybridized with secondary antibodies coupled to horseradish peroxidase for 40 to 60 min at RT. Immunodetection was accomplished using enhanced chemiluminescence. Density of each band was determined by scanning the exposed film. The time course of glucose and lactate isotopomers in plasma, and glucose isotopomers in liver glycogen was determined using gas chromatography/mass spectrometry. The M1 glucose isotopomer, in which ^13C glucose can occupy the carbon 1 position, was produced via the action of the oxidative limb of the pentose phosphate pathway (PPP) on the administered M2 glucose isotopomer, and its re-entry into the gluconeogenic pathway via the non-oxidative limb of the PPP. The absorption of administered glucose was monitored by the time course of M2 isotopomer, and hepatic glucose recycling by the time course of M1 isotopomer of glucose.

[2] = [1, 2-^13C2]-glucose HR-GTT in C57BL/6 and PPARα KO mice; assay type: in vivo, C57BL/6 mice and PPARα KO mice; settings: for glucose recycling rate constant (kHR), slope of M1/M2 ratio against time: regression analysis
Description: Wild-type (C57BL/6) mice and PPARα KO mice were obtained. In this example, glucose was labeled with either stable isotopes of [1, 2-^13C2]-glucose, or [2-^2H]- and [6, 6-^2H2]-glucose and all isotopes were 99% enriched. The [1, 2-^13C2]-glucose, or a 1:1 mixture of [2-^2H]- and [6, 6-^2H2]-glucose, was then administered at 1 mg glucose/gm body weight by intraperitoneal injection. Blood was sampled at 0, 0.5, 1, 2, and 3 hours for [1, 2-^13C2]-glucose isotopomer analysis, and 0.5, 1 and 2 hours for deuterated glucose isotopomer analysis. Plasma glucose and lactate concentrations were determined by the use of a COBAS MIRA analyzer. All isotopomeric determinations were performed on a Hewlett Packard Mass Selective Detector (model 5973A) connected to an HP Gas Chromatograph (model 6890) using chemical ionization (CI) with 20% methane. The re-cycling of hepatic glucose, leading to the appearance of M1 glucose in blood, occurs when the glucose traverses the glucose<->G-6-P, pentose phosphate pathway, and possibly the TCA cycle. […] The slope of the increase in this ratio gives the in vivo glucose dependent futile re-cycling rate constant of glucose through G-6-P.

OC[C@H]1OC(O)[C@H](O)[C@@H](O)[C@@H]1O (stereo partly shown) [[1,2-^13C2]-glucose]
decrease in total amount of M2 glucose ([1]; 60-120 minutes): 30% | decrease in total amount of M2 glucose ([1]; 120-180 minutes): 65% | plasma M2 enrichment after steady decline ([1]; after the first 60 minutes, ip 1 mg/gm): 20.1±1.3% | enrichment of [1, 2-^13C2]-glucose (M2) in the plasma glucose pool ([1]; enrichment rapidly achieved after ip injection of 1 mg/gm body weight): 55±1.0% | contribution of direct pathway from glucose uptake to glycogen glucose deposited ([1]; glucose load 1 mg glucose/g body weight): less than 5% | M2 isotopomer enrichment in liver glycogen glucose, start of decrease ([1]; liver glycogen, earlier time (2 hours)): 1.9% | M2 isotopomer enrichment in liver glycogen glucose, end of decrease ([1]; liver glycogen, later time (3 hours)): 0.8% | glucose recycling rate constant (kHR), slope of M1/M2 ratio against time ([2]; C57BL/6 mice): 0.1086 ± 0.0049 per hour | glucose recycling rate constant (kHR), slope of M1/M2 ratio against time ([2]; PPARα KO mice, p<0.025 vs C57BL/6): 0.0790 ± 0.0064 per hour | fall in plasma M2 levels, faster in PPARα KO than in C57BL/6 (overall glucose clearance) ([2]; between 0.5 hours and 3.0 hours, p<0.001): 32%
